Experimental data from patent publication US8450456B2, “Activating peptide of the synthesis of aquaporins and cosmetic and/or pharmaceutical composition containing it” (ISP Investments Inc., priority 2007, dated 2013).
Ends that are not written are not given here.

Assays:
[1] = test system: normal human keratinocytes; test: Protective effect against osmotic shock caused by sorbitol, viability test by MTT; format: cell-based; details: sorbitol 250 mM 24 hours, vs non-treated cells
Protocol: The aim of this study is to determine the protective effect of the peptide SEQ ID no4 with respect to normal human keratinocytes subjected to an osmotic shock caused by sorbitol. The evaluation of the cellular state is then carried out by a viability test by MTT.
Normal human keratinocytes in culture were placed in the presence of the peptide SEQ ID no4 at 0.5%, 1% and 3% from a mother solution at 50 ppm, 24 hours before and during the osmotic shock. The hypertonic culture conditions were realized by adding sorbitol at 250 mM to the culture medium for 24 hours. Non-treated controls are carried out.
Cellular viability tests were then carried out by the MTT technique. The MTT agent (3-[4,5-dimethylthiazol-2-yl]-2,5-diphenyltetrazolium bromide) is used to evaluate the cellular viability. The keratinocytes are incubated in a solution containing 0.1 mg/ml MTT (3-[4,5-dimethylthiazol-2-yl]-2,5-diphenyltetrazolium bromide). This compound is absorbed by the living cells, then metabolized by the mitochondrial enzymes (succinate dehydrogenase) in a blue-violet compound, formazan, which is present in the form of insoluble violet crystals in aqueous medium.
The formazan crystals are solubilized in DMSO. They produce an absorbance (O.D.) proportional to the number of living cells present in the sample. Measurements of absorbance at 540 nm are then carried out. […]

aquaporin 3 = test: Expression of aquaporin 3 by immunofluorescence in samples of skin ex vivo; format: cell-based, human; details: 1% solution of a mother solution at 50 ppm applied topically, 24 hours or 48 hours (0.05 ppm); upper layers of the epidermis; vs non-treated control
Protocol: The aim of this study is to determine the influence of the peptide SEQ ID no5 on the expression of aquaporin 3 in samples of skin ex vivo.
Protocol: Samples of human skin are cultured at the air/liquid interface. A 1% solution of a mother solution at 50 ppm of peptide SEQ ID no4 is applied topically, then the samples are incubated for 24 hours or 48 hours.
These skin samples are then fixed with formaldehyde then enclosed in paraffin. Sections of 2 to 3 μm are then realized. The immunolabeling is carried out after different stages of washing and incubation of these sections. The immunolabeling is carried out by means of a specific polyclonal antibody of aquaporin 3 (anti-aquaporin 3 (C-18): goat polyclonal, sc-9885, Santa Cruz, dilution 1/100th), then a secondary antibody, coupled to a fluorescent marker (alexa-fluor 488 donkey anti-goat Ig G, Molecular Probes, dilution 1/1000th). The skin sections are then examined by epifluorescence microscope (Nikon Eclipse E600 microscope).

[2] = test system: Biopsies of human skin relieved of their stratum corneum; test: Protective effect against induced cutaneous dehydration (tape stripping), ex vivo skin biopsies, H&E histology; format: cell-based; details: 1% solution of a mother solution at 50 ppm, 24 hours, stripped ex vivo human skin
Protocol: The aim of this study is to determine the protective effect of the peptide SEQ ID no5 with respect to ex vivo epidermis cultures subjected to a stress by an induced cutaneous dehydration.
Biopsies of human skin are relieved of their stratum corneum by stripping by means of an adhesive tape (tape stripping) then held in culture ex vivo, treated with a 1% solution of a mother solution at 50 ppm of peptide SEQ ID no5 for 24 hours. The absence of the stratum corneum induces a high dehydration. Hematoxylin-eosin (H&E) histological sections and stains allow the quality of the cutaneous structures to be evaluated.

claudin-1 = test: Expression of claudin-1 by immunofluorescence on sections of human skin; format: cell-based; details: 1% solution of a mother solution at 50 ppm applied topically, 24 hours (0.05 ppm); in particular the upper layers of the epidermis
Text: (§1) The aim of this study is to determine the influence of the peptide SEQ ID no 5 on the expression of claudins and of keratin K10. Claudins are the principal transmembrane proteins of the intercellular adhesion structures known as tight-junction, which play a part in the cellular communication and in epidermal cohesion. Keratin K10 is a specific keratin of the differentiated epidermal layers (stratum granulosum) and is involved in the barrier function of the skin. The quantity of protein was evaluated by immunofluorescence on sections of human skin.
(§2) Protocol: Samples of human skin are cultured at the air/liquid interface. A 1% solution of a mother solution at 50 ppm of peptide SEQ ID no5 is applied topically, then the samples are incubated for 24 hours.
(§3) These skin samples are then fixed with formaldehyde, then enclosed in paraffin. Sections of 2 to 3 μm are then realized. The immunolabeling is carried out after different stages of washing and of incubation of these sections.
The immunolabeling of claudin-1 is carried out by means of a specific antibody of claudin-1 (claudin-1 antibody: rabbit polyclonal, ref: Ab15098, Abcam, dilution 1/200th), then a secondary antibody, coupled with a fluorescent marker (alexa Fluor 488 donkey anti-rabbit IgG, A21206, Molecular Probes, 1/1000th).
(§4) The skin sections are then examined by epifluorescence microscope (Nikon Eclipse E600 microscope).

keratin K10 = test: Expression of keratin K10 by immunofluorescence on sections of human skin; format: cell-based; details: 1% solution of a mother solution at 50 ppm applied topically, 24 hours (0.05 ppm); in particular the upper layers of the epidermis
Text: as §1, §2, §3
The immunolabeling of keratin 10 is carried out by means of a specific antibody of keratin 10 (antibody K10: mouse monoclonal, ref: LHP1, Novocastra, dilution 1/50th), then a secondary antibody, coupled to a fluorescent marker (alexa Fluor 488 donkey anti-mouse IgG, A21202, Molecular Probes, 1/1000th).
as §4

Substance | viability of cells subjected to the osmotic shock (dose dependence) ([1]; peptide at 0.5%, 1% and 3% of a mother solution at 50 ppm) | increase of viability of cells subjected to the osmotic shock ([1]; peptide at 3% of a mother solution at 50 ppm, 24 hours before and during shock) [%] | aquaporin 3 immunofluorescence (aquaporin 3) | appearance of the keratinocytes of the basal layer (regeneration) [2] | signs of cellular stress and preservation of cutaneous structures (H&E sections) ([2]; vs non-treated biopsies) | claudin-1 immunofluorescence (claudin-1) | keratin K10 immunofluorescence (keratin K10)
Asn-Pro-Ala-Arg (NPAR) [SEQ ID no4] | increase in the viability, dependent on dose | 12 | stronger fluorescence |  |  |  | 
Asn-Pro-Ala-Arg-NH2 (NPAR-NH2) [SEQ ID no5] |  |  |  | regenerating effect | distinct reduction to the signs of cellular stress and a better preservation of the cutaneous structures | stronger fluorescence | stronger fluorescence
